In patent US11904051B2, “Shear stress sensitive liposomes” (Universität Basel, priority 2018, dated 2024):
Read-outs that look alike come from different tables or passages of the source.

Key:
[1] = reported previously, cited from earlier work
[2] = Dynamic light scattering of liposome formulations before and after SANS heating cycles; format: physicochemical; conditions: for PDI, Before heating / Size (hydrodynamic), Before heating: before the SANS experiments (n = 5); for Size (hydrodynamic), Before heating: room temperature, D2O; for DLS larger population size: bimodal size distribution; for PDI, After heating / Size (hydrodynamic), After heating: after the SANS experiments (n = 3); for Size (hydrodynamic), After heating: heating to 42° C. and back, eight months after
Method: A library of artificial phospholipids was synthesised. Table 5 summarises the characterisation of the liposomal formulations concerning hydrodynamic size and polydispersity, before and after the temperature-dependent SANS measurements. The size of the DPPC and Pad-PC-Pad liposomes was (120±2) nm with a polydispersity index between 0.01 and 0.20. […] Pad-Pad-PC and Sur-PC-Sur liposomes were 400 to 1,500 nm in size with a polydispersity index of 0.57.
DLS measurements were carried out on a DelsaMax PRO (Beckman Coulter, USA) at room temperature and at a lipid concentration of 0.3 mg/mL in D2O. The data were averaged among five independent measurements before heating cycles and three measurements eight months after applying heating cycles. Data were treated with the cumulant analysis method.

[3] = Small-angle neutron scattering (SANS) of liposomes as a function of temperature; format: physicochemical
From the text: In order to determine the structural parameters, including the bilayer thickness of the selected liposomal formulations, a suitable model for data fitting has to be identified. […] The structure factor was fitted using the sticky hard sphere model (Baxter et al., The Journal of Chemical Physics 1968, 49 (6), 2770-2774; Mays, Langmuir 1989, 5, 422-428). In order to adjust the form factor to the overall shape of the liposomes, an ellipsoidal shell model with a homogeneous cross-section (Guinier, Annales de Physique, 1939; pp 161-237) was applied. The elliptical shell model is defined by three orthogonal axes with lengths a=R, b=R and c=εR, along with eccentricity ε>0, (ε<1: oblate, ε=1: spherical, ε>1: prolate). The model also accounts for variations in bilayer thickness and liposome size. As the scattering data of the Pad-PC-Pad liposomes at the temperature of 35° C. could not be approximated satisfactorily by means of the ellipsoidal shell, the inventors included disks with a homogeneous cross-section—an approach motivated by the cryo-TEM results. Together with the experimental data of the Pad-PC-Pad liposomes at three selected temperatures, the obtained fits are represented in FIG. 23.
The inventors recognised that the inhomogeneity of the liposomal formulations, except for Pad-PC-Pad, concerning the shape and size of the artificial lipids in this study only allows for the reasonable fitting of the q-range, which corresponds to bilayer thickness. For this purpose, the inventors applied an extended Guinier law (Hjelm et al., The Journal of Physical Chemistry B 2000, 104 (2), 197-211; Fratzl, Journal of Statistical Physics 1994, 77 (1-2), 125-143), which yields the thickness of the bilayer. To account for possible multi-lamellarity, the inventors included a para-crystalline stacking model (Schwartz et al., Biophysical journal 1975, 15 (12), 1201-1233; FruÈhwirth et al., Journal of Applied Crystallography 2004, 37 (5), 703-710) as a structure factor.
SANS measurements were performed at the SANS-I beamline at the Swiss Spallation Neutron Source SINQ facility (Paul Scherrer Institute, Villigen, Switzerland). The samples were loaded into 2 mm-path length, boron-free quartz glass cells and mounted in a temperature-controlled holder. This system allows for controlling the temperature of the specimen with an accuracy better than 1 K. The liposomal suspensions were measured between 22 and 42° C. in 3 to 4 K steps. Subsequently, the suspensions were cooled down to room temperature (22° C.) and measured again. Three detector distances, i.e. 1.6, 6.0 and 18.0 m, were used to collect data over the range of scattering vectors 0.01 nm^−1<q<10 nm^−1 at the neutron wavelengths (A) […]. Data were collected with a two-dimensional ^3He-detector with an array of 128×128 pixels and reduced to one-dimensional I(q) scattering curves, thus radially averaging the two-dimensional images. The data were corrected for transmission, background scattering and detector efficiency according to a standard procedure using the BerSANS software package (Keiderling, Applied Physics A 2002, 74 (1), s1455-s1457; Strunz et al., Journal of Applied Crystallography 2000, 33 (3 Part 1), 829-833).
The SANS data were analysed using SASfit software (Breßler et al., Journal of Applied Crystallography 2015, 48 (5), 1587-1598) and corresponding models. A Pad-PC-Pad sample was fitted over the entire measured q-range, whereas we restricted the fit for the other samples to the q-range, which corresponds to lipid bilayer thickness. For Pad-PC-Pad, the inventors used an ellipsoidal shell model with a homogeneous cross-section (Guinier, Annales de Physique, 1939; pp 161-237) and size distributions in terms of both thickness and radius. […]

[4] = Differential scanning calorimetry, main phase transition of vesicle membranes; format: physicochemical; conditions: main phase transition temperature of liposome membrane
From the text: Interdigitation of membrane leaflets also influences the membranes main-phase transition temperature. […] Also, the value for the bilayer main-phase transition temperature is 11.5 K higher than the calculated critical temperature from the monolayer experiments, where no interdigitation is possible.

[5] = Release experiments with 5(6)-carboxyfluorescein-loaded large unilamellar vesicles (LUVET100), spontaneous and vortex-triggered; format: physicochemical
From the text: FIG. 8 Release experiments using 5(6)-carboxyfluorescein-loaded large unilamellar vesicles comprising 1,3-diheptadecanamidopropan-2-yl (2-(trimethylammonio) ethyl) phosphate (4) obtained via extrusion through a 100 nm track-edged filter membrane (LUVET100). Triggered release was induced by shaking the samples for a specific amount of time on a vortex-shaker.
Previously the inventors reported the 5(6)-carboxyfluorescein release from vesicles containing 1,3-palmitoylamido-1,3-deoxy-sn-glycero-2-phosphatidylcholine (2) (Holme et al., Nat. Nanotechnol. 2012, 7, 536-543). […] Increasing the Tm promises improved release properties. […] This leads to a lower leakage of the vesicles at 22° C. (room temperature) as well as 37° C. (average human body temperature) (FIG. 8). A prolongation if the acyl chain to the artificial C18 phospholipid 1,3-stearoylamido-1,3-deoxy-sn-glycero-2-phosphatidylcholine leads to an increased Tm of 52° C., but this phospholipid forms almost no liposomes anymore.
Each sample was treated with Triton X-100 to induce a full release of 5(6)-carboxy fluorescein.
Large unilamellar vesicles with a diameter of 100 nm (LUVET100) of the 1,3-diheptadecanamidopropan-2-yl (2-(trimethylammonio) ethyl) phosphate (4) were prepared following the extrusion protocol: in a 25 ml round bottom flask, 10 mg of the lipid was dissolved in CH2Cl2. After evaporation of the organic solvent, the film was further dried under high vacuum (40 mbar) overnight. Then the film was hydrated with the internal buffer for 30 min (1 ml, 50 mM 5(6)-carboxyfluorescein, 10 mM HEPES buffer (AppliChem), 10 mM NaCl dissolved in pure water, pH 7.4). Now at least 5 freeze-thaw cycles (liquid N2 to 65° C.) were carried out before the suspension was extruded 11 times using a Mini Extruder (Avanti Polar Lipids, USA) using track-edged filters with a mesh size of 100 nm (Whatman, USA). The external buffer was then exchanged on a size exclusion column (1.5×20 cm Sephadex G-50 column) in external buffer (107 mM NaCl dissolved in ultrapure water, 10 mM HEPES, pH 7.4).

[6] = 22 ° C. (after cooling down to room temperature)

Row | DLS most probable / dominant or smaller population size [2] | PDI, Before heating [2] | DLS larger population size [2] | most probable bilayer thickness ([3]; 22 ° C.) | most probable bilayer thickness [3, 6] | most probable bilayer thickness ([3]; 25 ° C.) | most probable bilayer thickness ([3]; 28 ° C.) | most probable bilayer thickness ([3]; 32 ° C.) | most probable bilayer thickness ([3]; 35 ° C.) | most probable bilayer thickness ([3]; 39 ° C.) | most probable bilayer thickness ([3]; 42 ° C.) | PDI, After heating [2] | Size (hydrodynamic), After heating [2] | Compound | Tm, main phase transition temperature [1] | also measured
1 | about 150 nm | 0.57 | ~3 μm | 5.57 nm | 5.67 nm | 5.55 nm | 5.55 nm | 5.52 nm | 5.54 nm | 5.58 nm | 5.57 nm |  |  | CCCCCCCCCCCCCCCC(=O)NC[C@H](COP(=O)([O-])OCC[N+](C)(C)C)NC(=O)CCCCCCCCCCCCCCC [Pad-Pad-PC] | 46 °C | Tm, main phase transition temperature ([1]; listed as Pad-Pad-PC (2)): 40-47 °C; Size (hydrodynamic), Before heating ([2]; listed as Pad-Pad-PC (2)): 1500 ± 30 nm; PDI, Before heating ([2]; listed as Pad-Pad-PC (2)): 0.57 ± 0.01
2 | about 100 nm | 0.57 ± 0.01 | ~1 μm | 3.9 nm | 4.82 nm | 4.17 nm | 4.46 nm | 4.42 nm | 4.6 nm | 4.68 nm | 4.58 nm | 0.92 ± 0.08 | 3100 ± 200 nm | CCCCCCCCCCCCCCCC(=O)OCC(COC(=O)CCCCCCCCCCCCCCC)OP(=O)([O-])OCC[N+](C)(C)C [Pes-PC-Pes] | 39 °C | Size (hydrodynamic), Before heating ([2]; listed as Pes-PC-Pes (3)): 170 ± 20 nm; increase in bilayer thickness at phase transition ([3]; present study): 18%; increase in bilayer thickness after the heating cycle ([3]; temperature cycle to 42° C. including cooling to room temperature): 24%
3 | 160 nm | 0.23 ± 0.01 |  | 3.15 nm | 3.01 nm | 3.51 nm | 3.51 nm | 3.49 nm | 3.46 nm | 3.38 nm | 3.33 nm | 0.20 ± 0.02 | 220 ± 10 nm | CCCCCCCCCCCCCCCCCC(=O)NCC(CNC(=O)CCCCCCCCCCCCCCCCC)OP(=O)([O-])OCC[N+](C)(C)C [Sad-PC-Sad, 1,3-distearamidopropan-2-phosphocholine] | 52 °C | Tm [4]: 52 °C; Size (hydrodynamic), Before heating ([2]; listed as Sad-PC-Sad (6)): 160 ± 3 nm; Release at 37° C. after 2 h ([5]; 37° C., 2 h): 9.1%; Release at RT after 60 s vortex ([5]; mechanically induced release, 22° C. (RT), 60 s vortexing): 8.32%; Release 37° C. after 60 s vortex ([5]; mechanically induced release, 37° C., 60 s vortexing): 40.2%; Release at RT after 6 days ([5]; spontaneous release, RT, (6 days)): 8.4%; bilayer thickness variations ([3]; 22 to 42° C.): ≤ 10%
